Results from patent EP2022493A1, “Composition comprising at least one optically active phthalamide derivative for controlling animal parasites” (Bayer CropScience AG, priority 2007, dated 2009).

Experiments:
Boophilus microplus = Boophilus microplus - test (injection into adult ticks); format: in vivo; settings: application rate of 20 µg/animal; injected into the abdomen of adult ticks; seven days
Method: Boophilus microplus - test Solvent: dimethylsulfoxide To produce a suitable preparation of active compound, 1 part by weight of active compound is mixed with the stated amount of solvent, and the concentrate is diluted with containing solvent to the desired concentration. Adult ticks (Boophilus microplus) are treated by injected with compound solution of the desired concentration into the abdomen. Ticks are transferred into replica plates and incubated in a climate chamber for seven days. Eggs which are not clearly fertile or infertile are further incubated for another 35 days until larvae hatch from the untreated controls. After the specified period of time, the laying of fertile eggs in % is determined. 100 % means that all eggs have been fertile; 0 % means that none of the eggs have been fertile.

Musca domestica = Musca domestica - test; format: in vivo; settings: adults; for mortality at 100 ppm: application rate of 100ppm; for mortality at 20 ppm: application rate of 20ppm
Method: (§1) Solvent: dimethyl sulfoxide
(§2) To produce a suitable preparation of active compound, 10 mg of active compound are dissolved in 0.5 ml solvent, and the concentrate is diluted with water to the desired concentration.
Prior to the assay, a piece or kitchen sponge is soaked with a mixture of sugar and compound solution and placed into a container. 10 adults (Musca domestica) are placed into the container and closed with a perforated lid.
After the specified period of time, mortality in % is determined. 100 % means that all the flies have been killed; 0 % means that none of the flies have been killed.

Lucilia cuprina larvae = experiment: Lucilia cuprina - test (larvae); format: in vivo; settings: in Ovis aries, read-out: activity (mortality in %)
Method: as §1, §2
Approximately 20 -30 (Lucilia cuprina larvae) are transferred into a test tube containing 1cm^3 of minced horse meat and 0.5 ml aqueous dilution of test compound.
After the specified period of time, mortality in % is determined. 100 % means that all the larvae have been killed; 0 % means that none of the larvae have been killed.

[1] = Determination of the logP values by HPLC on reversed-phase column (C 18); format: physicochemical
Method: Determination of the logP values:
The lambda max values were determined in the maxima of the chromatographic signals using the UV spectra from 190 nm to 400 nm.

[2] = 0.001 m aqueous nh4hco3/acetonitrile, method [c]: 0.001 molar aqueous NH4HCO3 solution and acetonitrile at pH 7.8, linear gradient from 10 % to 95 % acetonitrile (v/v), HPLC reversed-phase C 18, 40 °C
[3] = 0.1% aqueous phosphoric acid/acetonitrile, method [a]: 0.1% aqueous phosphoric acid and acetonitrile at pH 2.3, linear gradient from 10 to 95 % (v/v) acetonitrile, HPLC reversed-phase C 18, 40 °C
[4] = 0.001 m aqueous nh4hco3/acetonitrile, HPLC, reversed-phase C 18, 40 °C, [c] 0.001 molar aqueous NH4HCO3 solution and acetonitrile at pH 7.8, linear gradient from 10 % to 95 % acetonitrile (v/v)
[5] = 0.1% aqueous phosphoric acid/acetonitrile, HPLC, reversed-phase C 18, 40 °C, [a] 0.1% aqueous phosphoric acid and acetonitrile at pH 2.3, linear gradient from 10 to 95 % (v/v) acetonitrile

Row | SMILES | activity (laying of fertile eggs in %) (Boophilus microplus) | mortality at 100 ppm (Musca domestica) | mortality at 100 ppm (Lucilia cuprina larvae) | chromatographic logP [1, 2] | chromatographic logP [1, 3] | chromatographic logP [1, 4] | chromatographic logP [1, 5] | mortality at 20 ppm (Musca domestica)
1 | Cc1cc(C(C(F)(F)F)C(F)(F)F)ccc1NC(=O)c1cccc(I)c1C(=O)N[C@@H](C)C[S+](C)[O-] (stereo partly shown) [Compound 56] | ≥ 80% | ≥ 80% | ≥ 80% | – | – | – | – | –
2 | Cc1c(NC(=O)c2cccc(Cl)c2C(=O)N[C@@H](C)C[S+](C)[O-])ccc(C(C(F)(F)F)C(F)(F)F)c1F (stereo partly shown) [Compound 406] | ≥ 80% | ≥ 80% | ≥ 80% | 2.41 | 2.5 | – | – | –
3 | CSC[C@H](C)NC(=O)c1c(I)cccc1C(=O)Nc1ccc(C(C(F)(F)F)C(F)(F)F)cc1C [Compound 24] | ≥ 80% | ≥ 80% | ≥ 80% | – | – | – | – | –
4 | CSC[C@H](C)NC(=O)c1c(I)cccc1C(=O)Nc1ccc(C(C(F)F)C(F)(F)F)cc1Br (stereo partly shown) [Compound 227] | ≥ 80% | ≥ 80% | ≥ 80% | – | – | 3.54 | 3.51 | –
5 | CCS(=O)(=O)C[C@H](C)NC(=O)c1c(Cl)cccc1C(=O)Nc1ccc(C(F)(F)C(F)(F)F)c(F)c1C [Compound 372] | ≥ 80% | – | ≥ 80% | – | 3.01 | – | – | ≥ 80%
6 | C[C@@H](CS(C)(=O)=O)NC(=O)c1c(I)cccc1C(=O)Nc1ccc(C(C(F)F)C(F)(F)F)cc1Br (stereo partly shown) [Compound 275] | – | ≥ 80% | ≥ 80% | – | – | 2.76 | 2.71 | –
7 | CCS(=O)(=O)C[C@H](C)NC(=O)c1c(I)cccc1C(=O)Nc1ccc(C(C(F)F)C(F)(F)F)cc1F (stereo partly shown) [Compound 315] | ≥ 80% | ≥ 80% | ≥ 80% | – | – | 2.69 | 2.65 | –
8 | CCSC[C@H](C)NC(=O)c1c(I)cccc1C(=O)Nc1ccc(C(C(F)F)C(F)(F)F)cc1Cl (stereo partly shown) [Compound 235] | ≥ 80% | ≥ 80% | ≥ 80% | – | – | 3.79 | 3.76 | –
9 | CSC[C@H](C)NC(=O)c1c(I)cccc1C(=O)Nc1ccc(C(F)(C(F)(F)F)C(F)(F)F)c(F)c1C [Compound 423] | ≥ 80% | ≥ 80% | ≥ 80% | – | 4.41 | – | – | –
10 | Cc1c(NC(=O)c2cccc(I)c2C(=O)N[C@@H](C)CS(C)(=O)=O)ccc(C(F)(C(F)(F)F)C(F)(F)F)c1F [Compound 178] | – | ≥ 80% | ≥ 80% | – | 3.27 | – | – | –
11 | CSC[C@H](C)NC(=O)c1c(Cl)cccc1C(=O)Nc1ccc(C(F)(C(F)(F)F)C(F)(F)F)cc1C [Compound 390] | ≥ 80% | ≥ 80% | ≥ 80% | – | – | – | – | –
12 | Cc1cc(C(F)(C(F)(F)F)C(F)(F)F)ccc1NC(=O)c1cccc(I)c1C(=O)N[C@@H](C)CS(C)(=O)=O [Compound 1] | ≥ 80% | ≥ 80% | ≥ 80% | 3.2 | 3.18 | – | – | –
13 | Cc1cc(C(F)(C(F)F)C(F)(F)F)ccc1NC(=O)c1cccc(Cl)c1C(=O)N[C@@H](C)CS(C)(=O)=O (stereo partly shown) [Compound 371] | ≥ 80% | ≥ 80% | ≥ 80% | 2.64 | 2.61 | – | – | –
14 | CCSC[C@H](C)NC(=O)c1c(I)cccc1C(=O)Nc1ccc(C(F)(C(F)F)C(F)(F)F)cc1C (stereo partly shown) [Compound 218] | ≥ 80% | ≥ 80% | ≥ 80% | – | – | 3.96 | 3.96 | –
15 | Cc1cc(C(C(F)(F)F)C(F)(F)F)c(F)cc1NC(=O)c1cccc(Cl)c1C(=O)N[C@@H](C)C[S+](C)[O-] (stereo partly shown) [Compound 414] | ≥ 80% | ≥ 80% | ≥ 80% | 2.51 | 2.58 | – | – | –
16 | C[C@@H](CS(C)(=O)=O)NC(=O)c1c(I)cccc1C(=O)Nc1ccc(C(F)(C(F)F)C(F)(F)F)cc1F (stereo partly shown) [Compound 283] | – | ≥ 80% | ≥ 80% | – | – | 2.76 | 2.72 | –

Row | SMILES | activity (laying of fertile eggs in %) (Boophilus microplus) | mortality at 100 ppm (Musca domestica) | mortality at 100 ppm (Lucilia cuprina larvae) | chromatographic logP [1, 2] | chromatographic logP [1, 3] | chromatographic logP [1, 4] | chromatographic logP [1, 5] | mortality at 20 ppm (Musca domestica)
17 | Cc1cc(C(F)(C(F)(F)F)C(F)(F)F)ccc1NC(=O)c1cccc(Cl)c1C(=O)N[C@@H](C)CS(C)(=O)=O [Compound 80] | ≥ 80% | ≥ 80% | ≥ 80% | – | – | – | – | –
18 | CCS(=O)(=O)C[C@H](C)NC(=O)c1c(Br)cccc1C(=O)Nc1ccc(C(C)(F)C(F)F)cc1Br (stereo partly shown) [Compound 424] | ≥ 80% | ≥ 80% | ≥ 80% | – | 3.06 | – | – | ≥ 80%
19 | CCS(=O)(=O)C[C@H](C)NC(=O)c1c(I)cccc1C(=O)Nc1ccc(C(F)(C(F)F)C(F)(F)F)cc1F (stereo partly shown) [Compound 307] | – | ≥ 80% | ≥ 80% | – | – | 2.94 | 2.89 | –
20 | Cc1c(NC(=O)c2cccc(I)c2C(=O)N[C@@H](C)CS(C)(=O)=O)ccc(C(F)(F)C(F)(F)F)c1F [Compound 162] | – | ≥ 80% | ≥ 80% | – | 2.97 | – | – | –
21 | CSC[C@H](C)NC(=O)c1c(Br)cccc1C(=O)Nc1ccc(C(F)(C(F)(F)F)C(F)(F)F)c(F)c1C [Compound 398] | ≥ 80% | ≥ 80% | ≥ 80% | – | 4.31 | – | – | –
22 | CCSC[C@H](C)NC(=O)c1c(I)cccc1C(=O)Nc1ccc(C(C(F)F)C(F)(F)F)cc1C (stereo partly shown) [Compound 210] | ≥ 80% | ≥ 80% | ≥ 80% | – | – | 3.62 | 3.63 | –
23 | CCS(=O)(=O)C[C@H](C)NC(=O)c1c(I)cccc1C(=O)Nc1ccc(C(C(F)F)C(F)(F)F)cc1Br (stereo partly shown) [Compound 299] | ≥ 80% | ≥ 80% | ≥ 80% | – | – | 2.92 | 2.87 | –
24 | CCSC[C@H](C)NC(=O)c1c(I)cccc1C(=O)Nc1ccc(C(C(F)F)C(F)(F)F)cc1Br (stereo partly shown) [Compound 243] | ≥ 80% | ≥ 80% | ≥ 80% | – | – | 3.8 | 3.78 | –
25 | CCSC[C@H](C)NC(=O)c1c(I)cccc1C(=O)Nc1ccc(C(C(F)F)C(F)(F)F)cc1F (stereo partly shown) [Compound 219] | ≥ 80% | ≥ 80% | – | – | – | 3.57 | 3.57 | –
26 | Cc1cc(C(C(F)(F)F)C(F)(F)F)ccc1NC(=O)c1cccc(I)c1C(=O)N[C@@H](C)CS(C)(=O)=O [Compound 48] | ≥ 80% | ≥ 80% | ≥ 80% | – | – | – | – | –
27 | Cc1c(NC(=O)c2cccc(Cl)c2C(=O)N[C@@H](C)CS(C)(=O)=O)ccc(C(F)(F)C(F)(F)F)c1F [Compound 363] | ≥ 80% | ≥ 80% | ≥ 80% | – | – | – | 2.82 | –
28 | C[C@@H](CS(C)(=O)=O)NC(=O)c1c(I)cccc1C(=O)Nc1ccc(C(C(F)F)C(F)(F)F)cc1F (stereo partly shown) [Compound 291] | ≥ 80% | ≥ 80% | ≥ 80% | – | – | 2.54 | 2.5 | –
29 | CCS(=O)(=O)C[C@H](C)NC(=O)c1c(I)cccc1C(=O)Nc1ccc(C(C(F)(F)F)C(F)(F)F)cc1C [Compound 23] | – | ≥ 80% | ≥ 80% | – | – | – | – | –
30 | CCS(=O)(=O)C[C@H](C)NC(=O)c1c(I)cccc1C(=O)Nc1ccc(C(F)(C(F)(F)F)C(F)(F)F)c(F)c1C [Compound 130] | – | ≥ 80% | ≥ 80% | – | 3.47 | – | – | –
31 | C[C@@H](CS(C)(=O)=O)NC(=O)c1c(I)cccc1C(=O)Nc1ccc(C(C(F)F)C(F)(F)F)cc1Cl (stereo partly shown) [Compound 259] | – | ≥ 80% | ≥ 80% | – | – | 2.72 | 2.69 | –
